In publication PMC6150346, “Disrupting VEGF–VEGFR1 Interaction: De Novo Designed Linear Helical Peptides to Mimic the VEGF13-25 Fragment” (Molecules : A Journal of Synthetic Chemistry and Natural …, 2017):
Where two headings read alike, the source gives them in different places.

What was measured:
[1] = target: T1, extracellular domain (ECD, D1–D7) of VEGFR1 (Homo sapiens, UniProt P17948); conditions: cited from earlier work
T1 construct: VEGFR-1 D1-D7 (ECD domain)/Fc Chimera; purchased Bio-techne R&D, Abingdon, UK

[2] = target: T1, extracellular domain (ECD, D1–D7) of VEGFR1; assay: Chemiluminescent competition (displacement) assay: biotinylated VEGF165 (VEGF-A) vs peptide on coated VEGFR1; format: binding; conditions: for % of Displacement, 100 μM: biotinylated VEGF-A (131 pM btVEGF165) displaced by 100 μM peptide on VEGFR1 ECD (D1–D7), PBS 1% DMSO, 3 h 37 °C; for % of Displacement, 100 μM / % of Displacement, 30 μM: chemiluminescence; for % of Displacement, 100 μM / % of Displacement, 30 μM / IC50: three experiments in triplicate; for % of Displacement, 30 μM + EDTA: biotinylated VEGF-A displaced by 30 μM peptide in the presence of EDTA on VEGFR1 ECD (D1–D7), to avoid false positives from metals or aggregation; for % of Displacement, 30 μM: biotinylated VEGF-A displaced by 30 μM peptide on VEGFR1 ECD (D1–D7); for IC50: dose–response displacement assay on VEGFR1, log(inhibitor) vs. response fit, GraphPad Prism, read-out: IC50 (95% Confident Interval), relative inhibitory concentration 50
Protocol: The binding studies were performed on VEGF isoform VEGF-A (VEGF165) that is the most commonly involved in pathological angiogenesis. Compounds were first evaluated for their ability to displace biotinylated VEGF-A at two different doses, 30 and 100 μM (Table 2). A chemiluminescent assay, relying on competition between tested compounds and biotinylated VEGF-A for binding to the extracellular domain of recombinant VEGFR1, was used.
As described by Muller Y. A. et al., the surface of white high-binding 96-well microplate (Corning Life Sciences, Amsterdam, The Netherlands) was coated with 100 μL of phosphate-buffered saline solution (PBS, pH 7.4) containing 200 ng/mL of VEGFR-1 D1-D7 (ECD domain)/Fc Chimera or 150 ng/mL of VEGFR1 D1-D3/Fc chimera (Bio-techne R&D, Abingdon, UK) and incubated at 4 °C overnight. After three washes with 250 μL of PBS 0.1%, (v/v) tween 20 (buffer A), the plate was blocked by 200 μL of PBS with 3% (w/v) of BSA and stirred at 37 °C for 2 h. The plate was washed three times with buffer A. Then, 100 μL of a solution containing 131 pM of btVEGF165 (Bio-techne, R&D, Abingdon, UK) and the tested compounds at various concentration diluted in PBS containing 1% DMSO were added in each well. After 3 h stirring at 37 °C, the plate was washed four times with buffer A and 100 μL of streptavidin-horseradish peroxidase (Amersham Biosciences, Little Chalfont, UK) diluted at 1:8000 in PBS containing 0.1% (v/v) Tween 20 and 0.3% (w/v) BSA were added per well. After 1 h of incubation at 37 °C under obscurity and stirring, the plate was washed five times with 250 μL of buffer A and 100 μL of SuperSignal West Pico chemiluminescent substrate (Pierce, Appleton, WI, USA) were added. The remaining bt-VEGF165 was detected by chemiluminescence, which was quantified. The percentages of btVEGF165 displacement were calculated by the following formula: percentage of displacement = 100 × [1 − (S − NS)/(MS − NS)], where S is the signal measured, NS is the nonspecific binding signal and MS is the maximum binding signal observed with btVEGF165 without compounds tested. […] Each experiment was performed three times in triplicate.

T1 sequence (P17948 27-758 limits assumed): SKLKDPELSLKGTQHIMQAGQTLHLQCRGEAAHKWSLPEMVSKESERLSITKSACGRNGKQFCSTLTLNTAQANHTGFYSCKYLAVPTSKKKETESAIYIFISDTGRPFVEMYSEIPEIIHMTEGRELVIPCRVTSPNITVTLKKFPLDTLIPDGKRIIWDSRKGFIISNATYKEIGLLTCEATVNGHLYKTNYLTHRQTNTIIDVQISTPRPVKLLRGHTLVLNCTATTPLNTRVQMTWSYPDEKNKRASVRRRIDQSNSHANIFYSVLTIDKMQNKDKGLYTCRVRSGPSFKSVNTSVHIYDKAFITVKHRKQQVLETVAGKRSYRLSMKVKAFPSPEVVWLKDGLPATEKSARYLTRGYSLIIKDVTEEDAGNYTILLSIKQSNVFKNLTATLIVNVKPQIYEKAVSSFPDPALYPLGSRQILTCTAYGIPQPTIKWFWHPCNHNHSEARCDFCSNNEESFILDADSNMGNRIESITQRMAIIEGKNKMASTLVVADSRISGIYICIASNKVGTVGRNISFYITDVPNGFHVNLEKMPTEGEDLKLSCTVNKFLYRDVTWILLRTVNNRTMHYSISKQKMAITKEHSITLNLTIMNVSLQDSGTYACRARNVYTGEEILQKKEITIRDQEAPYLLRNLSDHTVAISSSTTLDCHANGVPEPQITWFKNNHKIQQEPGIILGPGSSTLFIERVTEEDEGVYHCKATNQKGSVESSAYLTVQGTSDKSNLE

| % of Displacement, 100 μM [2] [%] | % of Displacement, 30 μM + EDTA [2] [%] | % of Displacement, 30 μM [2] [%] | IC50 [2] [µM] | Substance | IC50 ([1]; displacement of biotinylated VEGF165 from VEGFR1 ECD, previous study, read-out: IC50 (relative inhibitory concentration 50)) [µM] | % of Displacement, 100 μM ([1]; percentage of biotinylated VEGF165 displaced by 100 μM peptide on whole extracellular domain (ECD, D1–D7) of VEGFR1, previously described peptides) [%] |
| --- | --- | --- | --- | --- | --- | --- |
| 60 ± 1 | 55 ± 1 | 59 ± 4 | 30.4 | Ac-SSEEFARNIAAYN-NH2 [Compound 32] |  |  |
| 72 ± 1 | 71 ± 2 | 60 ± 3 | 0.046 | Ac-SSEEFARNWAAIN-NH2 [Compound 29] |  |  |
| 62 ± 1 | 44 ± 5 | 71 ± 2 | 21.3 | Ac-SSEEWARNYAAFN-NH2 [Compound 16] |  |  |
| 58 ± 1 | 56 ± 6 | 62 ± 4 | 14 | Ac-SSEEYARNWAAFN-NH2 [Compound 14] |  |  |

The next lines start with the substance.

| Substance | % of Displacement, 100 μM [2] [%] | % of Displacement, 30 μM + EDTA [2] [%] | % of Displacement, 30 μM [2] [%] | IC50 [2] [µM] | IC50 ([1]; displacement of biotinylated VEGF165 from VEGFR1 ECD, previous study, read-out: IC50 (relative inhibitory concentration 50)) [µM] | % of Displacement, 100 μM ([1]; percentage of biotinylated VEGF165 displaced by 100 μM peptide on whole extracellular domain (ECD, D1–D7) of VEGFR1, previously described peptides) [%] |
| --- | --- | --- | --- | --- | --- | --- |
| Ac-KLTWQELYQLKYKGI-NH2 [QK, proangiogenic peptide of D'Andrea and co-workers] |  |  |  |  | 32 ± 8 | 69 ± 3 |
| Ac-SSEEFARNWAAFN-NH2 [Compound 12] | 55 ± 1 | 53 ± 4 | 66 ± 1 | 48.6 |  |  |
| Ac-SSEEWARNFAAFN-NH2 [Compound 10] | 55 ± 1 | 55 ± 4 | 64 ± 3 | 14.5 |  |  |
| Ac-SSEEYARNWAAWN-NH2 [Compound 8] | 63 ± 2 | 40 ± 7 | 63 ± 1 | 25.6 |  |  |
